Test [1] has as its target T1, Δ^12-lipoxygenase (Human Platelet) (Homo sapiens, UniProt P18054).
T1 construct: using human platelets as the enzyme source; from tissue; host or cells: human platelets (washed, lysed by freezing and thawing; 100,000×g supernatant, 50% ammonium sulfate precipitate)
T1 sequence (P18054 1-663): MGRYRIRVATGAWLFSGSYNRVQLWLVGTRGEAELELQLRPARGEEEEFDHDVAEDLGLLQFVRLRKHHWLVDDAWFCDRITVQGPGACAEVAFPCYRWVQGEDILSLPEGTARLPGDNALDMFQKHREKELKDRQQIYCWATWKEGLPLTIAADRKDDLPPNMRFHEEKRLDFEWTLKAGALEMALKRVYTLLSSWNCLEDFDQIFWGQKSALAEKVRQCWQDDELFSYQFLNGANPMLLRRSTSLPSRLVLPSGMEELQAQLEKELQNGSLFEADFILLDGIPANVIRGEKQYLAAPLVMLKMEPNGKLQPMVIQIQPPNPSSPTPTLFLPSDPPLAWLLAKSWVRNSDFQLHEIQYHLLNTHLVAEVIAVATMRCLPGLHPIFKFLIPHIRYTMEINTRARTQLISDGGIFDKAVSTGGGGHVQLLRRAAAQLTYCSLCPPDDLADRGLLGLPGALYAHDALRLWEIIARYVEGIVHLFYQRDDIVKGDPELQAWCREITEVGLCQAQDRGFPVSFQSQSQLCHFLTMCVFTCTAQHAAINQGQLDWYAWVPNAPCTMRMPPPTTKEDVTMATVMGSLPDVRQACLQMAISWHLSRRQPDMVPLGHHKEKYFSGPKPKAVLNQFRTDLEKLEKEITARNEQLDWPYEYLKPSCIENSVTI
The experiment in a line: Δ^12-lipoxygenase assay (conversion of 14C-arachidonic acid to 12-HETE, human platelet enzyme). Format: biochemical. The note with it: 3-4 μM arachidonic acid. As to the method: Δ^12 -lipoxygenase activity was measured by following the conversion of ^14 C-arachidonic acid (AA) to ^14 C-12-hydroxy-5,8,10,14-eicosatetraenoic acid (12-HETE) using human platelets as the enzyme source. Washed human platelets from approximately 2000 ml of blood were suspended in 50 ml of phosphate buffered saline (PBS) and then lysed by freezing and thawing (3 times). The platelet lysate was homogenized using a glass-teflon homogenizer and then particulate material was sedimented by centifugation at 100,000×g for 1 hr and the sediment was discarded. The supernatant was made 50% by weight saturated with respect to (NH4)2 SO4 by adding solid ammonium sulfate. The resultant suspension was allowed to stand at 0° overnight. The precipitate was collected by centrifugation and was dissolved in approximately 25 ml of PBS. This solution was the enzyme solution utilized to catalyze the conversion of AA to 12 HETE.
In order to test the compounds, separate incubation tubes for each of the compounds and for concentrations of these compounds were prepared in an ice bath. These tubes each contained 140 μl of PBS containing 1.78 mM glutathione, 10 μl of test drug in ethanol, 50 μl of platelet supernatant, and 50 μl of ^14 C-AA. […] Incubation tubes were prepared containing only buffer ethanol and ^14 c-AA were included as substrate controls. The final concentration of AA added as its ammonium salt in PBS, in each of the incubation tubes 3-4 μM. Sufficient enzyme solution prepared as above was added so that, under the conditions of the assay, approximately 80-90% by weight of the ^14 C-AA was converted to 12-HETE, as determined by prior controls. The tubes were incubated at 37° for 2 min, the reaction was stopped by the addition, while mixing on a mixer, of 2 ml of diethyl ether and 50 μl of 1M citric acid. The ether in the presence of citric acid extracted 12-HETE and AA from enzyme in the reaction medium in each of the samples. The ether extract was evaporated to dryness under nitrogen and then the residue was dissolved in 50 μl of chloroform:methanol (2:1 parts by volume). The dissolved residue containing 12-HETE and AA was applied, as rapidly as possible, to a glass fiber sheet impregnated with silica gel and then the chromatogram was developed using isooctane:methylethylketone:acetic acid (100:9:1 parts by volume) as solvent. Radioactive products and unconverted ^14 C-AA were located using a thin-layer chromatography scanner. The appropriate regions of the chromatogram were cut out, then the radioactivity quantitated using a liquid scintillation counter. The amount of ^14 C-AA converted to product is used as a measure of Δ^12 -lipoxygenase activity.
The mean percent inhibition was calculated by multiplying 100 times the following fraction: [formula] at each concentration of the various test drugs was calculated.

Test [2] deals with SRS-A synthesis (Rat Peritoneal Cells). To be noted: statement on standard; cited from earlier work.
In test [3] the target is T1, Δ^12-lipoxygenase (Human Platelet). The note with it: statement on standard; cited from earlier work.
In test [4] the target is T2, Prostaglandin endoperoxide synthase (Ovis aries, UniProt P05979).
T2 construct: sheep seminal vesicular gland microsomes (SSVM) as the enzyme source; from tissue; host or cells: sheep seminal vesicular gland microsomes, acetone powder
T2 sequence (P05979 25-600): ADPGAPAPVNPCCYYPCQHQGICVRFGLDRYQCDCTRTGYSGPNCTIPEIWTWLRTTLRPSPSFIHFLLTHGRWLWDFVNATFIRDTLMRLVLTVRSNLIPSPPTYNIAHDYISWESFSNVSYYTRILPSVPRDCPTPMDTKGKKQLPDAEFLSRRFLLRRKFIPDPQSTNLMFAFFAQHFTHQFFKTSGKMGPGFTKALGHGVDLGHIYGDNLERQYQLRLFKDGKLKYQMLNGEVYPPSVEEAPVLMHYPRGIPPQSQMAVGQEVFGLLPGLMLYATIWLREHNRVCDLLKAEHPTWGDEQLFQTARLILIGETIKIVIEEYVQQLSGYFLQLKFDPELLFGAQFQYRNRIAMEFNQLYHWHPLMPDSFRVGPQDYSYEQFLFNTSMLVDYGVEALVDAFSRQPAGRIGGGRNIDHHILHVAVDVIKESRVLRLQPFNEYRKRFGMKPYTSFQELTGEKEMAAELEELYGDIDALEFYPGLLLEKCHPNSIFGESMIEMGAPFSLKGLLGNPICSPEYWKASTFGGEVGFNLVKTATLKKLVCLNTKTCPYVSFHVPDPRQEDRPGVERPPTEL
The note with it: statement on standard; cited from earlier work.

Some results are limits rather than exact numbers.

Turning to `CCCCCC#CCC#CCCCCCCCC(=O)O` [9,12-Octadecadiynoic Acid, reference compound], the concentration for half-maximal inhibition (IC50) (as a rule, the concentration at which inhibition is half-maximal) in test [1] is no less than 100 µM. Further, the “inhibition of SRS-A synthesis (in words)” value in test [2] is on record as “potent standard inhibitor of SRS-A synthesis”. Besides, in test [3], the “inhibition of Δ^12-lipoxygenase (in words)” value is “not being an inhibitor of Δ^12 lipoxygenase”. Besides, the “inhibition of prostaglandin endoperoxide synthase (in words)” value in test [4] is “potent standard inhibitor”. Take `CCCCC/C=C\C/C=C\CC#CCC#CCCCC(=O)O` [Compound 3, (Z,Z)-11,14-eicosadien-5,8-diynoic acid]: the IC50 in test [1] was in the range of 10 to 100 µM. Still for that read-out and setting: with `CCCCCCCC/C=C\CC#CCC#CCCCC(=O)O` [Compound 5, (Z,Z)-11-eicosen-5,8-diynoic acid] the figure was 13 µM; with `CCCCC/C=C\CCCCC#CCC#CCCCC(=O)O` [Compound 6, (Z)-14-eicosen-5,8-diynoic acid], roughly 100 µM.

The record behind these values is patent publication US4642364A, “Unsaturated eicosanoic acids” (Hoffmann-La Roche Inc., priority 1986, dated 1987).
